The test system of one data set is ATF4. The data set can be described thus: HEK-ATF4 High Content Imaging assay (prevention of Tunicamycin induced ISR; ATF4 signal ratio between nucleus and cytoplasm). It is filed as cell-based. The essentials:
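Wild-type HEK293 cells in 0.3% FBS medium were co-treated with compounds and Tunicamycin (3.3 μM in prediluted medium, 11-fold over final) for 6 h at 37 °C. Fixed cells were immunostained for ATF4 with Hoechst nuclei; imaging gave nuclear/cytoplasmic ATF4 ratio, with nuclei counts as toxicity control.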

Data set [1] can be described thus: Thermodynamic (Equilibrium) solubility in selected buffer. The data set is classed as physicochemical. To be noted: for solubility: aqueous buffer, thermodynamic from solid. The essentials: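 Powdered compound at 1 mg/mL target in 50 mM phosphate pH 2.0, 50 mM acetate pH 5.5 or 50 mM phosphate pH 7.4, stirred overnight at r.t. in the dark, then 0.45 μm filtered. Filtrate quantified by UPLC-UV peak area against a 0.8 mg/mL DMSO reference.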

Data set [2] in a line: Log D 7.4 assay (1-octanol / phosphate buffer pH 7.4). The data set is classed as physicochemical. Here is the method:
Phosphate buffer (1 M) was diluted to 20 mM with deionised water and adjusted to pH 7.4 (±0.05) with phosphoric acid or sodium hydroxide. A 1:1 mixture of phosphate buffer (20 mM) and 1-octanol were saturated by tumbling overnight after which time the two phases were separated. Using an automated liquid handler the following procedure was carried out: 20 mM DMSO stocks of assay and control compounds were reformatted to provide cassettes of 4 compounds per well giving a final concentration of 5 mM per compound. In duplicate 5 μL of the cassetted compounds were added to 495 μL 1-octanol (saturated with buffer) followed by 495 μL of buffer (saturated with 1-octanol) in a 96-well plate giving final incubation concentrations of 25 μM (50 μM max concentration in either layer if all compound partitioned into a single matrix). The layers were mixed by aspirating and dispensing the buffer and octanol layers into one another three times. The plate was sealed, shaken for 120 minutes and then centrifuged at 25° C. for 15 min at 4600 rpm. The 1-octanol and buffer layer were sampled separately (ensuring no cross contamination) and the respective samples diluted with 60:40 ACN:0.1 M ammonium acetate pH 7.4 (containing external standard; Sulfisoxazole, assay concentration 120 nM) to obtain final theoretical maximum concentrations of the 1-octanol layer of 0.025 μM, 0.5 μM and a buffer layer concentration of 0.5 μM. The second buffer sample was prepared by diluting the assay buffer layer with acetonitrile (containing external standard; Sulfisoxazole, assay concentration 120 nM) to give a theoretical maximum concentration of 20 μM. The analytical samples were analysed by LC-MS/MS and the Log D calculated as shown:
[formula] Where PA=Peak area and ES=External standard

Where [3] appears, read: Homo sapiens, Wild-type HEK293 cells, Tunicamycin induced ISR, 6 h, read-out: IIEK-ATF4 Activity.
[4] abbreviates: Table 24 category key, read-out: HEK-ATF4 Activity*.
Where [5] appears, read: acetate buffer 50 mM, pH 5, Table 24, read-out: Solubility (μg/mL) pH 5.
Where [6] appears, read: acetate buffer 50 mM, pH 5.5, Table 25, read-out: Solubility (μg/mL) pH 5.5.
Setting [7] is: phosphate buffer 50 mM, pH 7.4, Table 24, read-out: Solubility (μg/mL) pH 7.4.

Each structure is given as a SMILES string. In brackets after ≈: the same amount, converted by molar mass. Like-named read-outs stand apart in the source and are kept apart here.

These results are taken from patent publication US12258338B2, “Modulators of the integrated stress response pathway” (EVOTEC INTERNATIONAL GMBH, priority 2019, dated 2025).

In general, logD refers to lipophilicity at a set pH, counting ionised and neutral species. High values mean higher lipophilicity, low ones lower lipophilicity.

Consider `O=C(COc1ccc(Cl)c(F)c1)N[C@H]1CC[C@H](c2nnc([C@H]3C[C@@H](OC(F)(F)F)C3)o2)NC1` [Example 50, 2-(4-chloro-3-fluorophenoxy)-N-[(3S,6R)-6-{5-[(1s,3s)-3-(trifluoromethoxy)cyclobutyl]-1,3,4-oxadiazol-2-yl}piperidin-3-yl]acetamide], for which the IC50 in the data set on ATF4 (setting [3]) and with ATF4 (setting [4]) was 1 to 500 nM in each case. Besides, the solubility is 78 µg/mL (≈ 158 µM) in data set [1] (setting [5]), 78 µg/mL (≈ 158 µM) in data set [1] (setting [6]) and 63 µg/mL (≈ 128 µM) in data set [1] (setting [7]). Moreover, the “Solubility (μg/mL) pH 2” value in data set [1] (pH 2, Table 24) is given as “quant.^#”. Besides, the “Solubility (μg/mL) pH 2.0” value in data set [1] (pH 2.0, Table 25) is “quant.^#”. This compound showed a logD at 120 min in data set [2] of 2.7.
As to `O=C(COc1ccc(Cl)c(F)c1)N[C@H]1CC[C@H](c2nnc(COC(F)(F)F)o2)NC1` [Example 61, 2-(4-chloro-3-fluorophenoxy)-N-[(3S,6R)-6-(5-[(trifluoromethoxy)methyl]-1,3,4-oxadiazol-2-yl}piperidin-3-yl]acetamide], the values for the IC50 in the data set with ATF4 (setting [3]) and in the data set with ATF4 (setting [4]) were 2000 to 15000 nM and 500 to 2000 nM, respectively. Further, the solubility was determined as 156 µg/mL (≈ 345 µM) in data set [1] (setting [5]); 156 µg/mL (≈ 345 µM) in data set [1] (setting [6]); 907 µg/mL (≈ 2000 µM) in data set [1] (phosphate buffer 50 mM, pH 2, Table 24, read-out: Solubility (μg/mL) pH 2); 90 µg/mL (≈ 199 µM) in data set [1] (setting [7]). Besides, the log distribution coefficient (logD) at 120 min in data set [2] was 2.3.
